Measurements from the NIST ThermoML archive (doi:10.1016/j.jct.2017.07.008).
Several values for one entry are separate records, joined by “and”; a condition that tells them apart may be missing. Equal values may be shown once. Numbers after ± are expanded uncertainties.

Conditions: for surface tension liquid-gas: Drop volume; for viscosity / speed of sound / mass density: Liquid; for viscosity: Capillary tube (Ostwald / Ubbelohde) method; for speed of sound: Frequency=3 MHz, Single path-length method; for mass density: Vibrating tube method

OCc1cccs1 [2-thiophenemethanol]
Conditions	surface tension liquid-gas [mN/m]
283.15 K	45.2 ± 0.3
285.65 K	44.93 ± 0.3
288.15 K	44.61 ± 0.3
290.65 K	44.39 ± 0.3
293.15 K	44.13 ± 0.3
295.65 K	43.83 ± 0.3
298.15 K	43.56 ± 0.3
300.65 K	43.29 ± 0.3
303.15 K	43.04 ± 0.3
305.65 K	42.78 ± 0.3
308.15 K	42.54 ± 0.3
310.65 K	42.27 ± 0.29
313.15 K	41.96 ± 0.29

Conditions	mass density	speed of sound [m/s]	viscosity [mPa·s]
283.15 K, 100 kPa	1215.5 ± 0.54 kg/m3	1545.7 ± 0.78	13.16 ± 0.15
283.15 K, 2000 kPa	1216.47 ± 0.54 kg/m3	–	–
283.15 K, 5000 kPa	1217.99 ± 0.55 kg/m3	–	–
283.15 K, 7000 kPa	1218.98 ± 0.56 kg/m3	–	–
283.15 K, 10000 kPa	1220.46 ± 0.57 kg/m3	–	–
283.15 K, 15000 kPa	1222.87 ± 0.59 kg/m3	–	–
283.15 K, 20000 kPa	1225.22 ± 0.62 kg/m3	–	–
283.15 K, 25000 kPa	1227.52 ± 0.64 kg/m3	–	–
283.15 K, 30000 kPa	1229.77 ± 0.67 kg/m3	–	–
283.15 K, 35000 kPa	1231.96 ± 0.7 kg/m3	–	–
283.15 K, 40000 kPa	1234.11 ± 0.74 kg/m3	–	–
283.15 K, 45000 kPa	1236.21 ± 0.77 kg/m3	–	–
283.15 K, 50000 kPa	1238.27 ± 0.81 kg/m3	–	–
283.15 K, 55000 kPa	1240.29 ± 0.84 kg/m3	–	–
283.15 K, 60000 kPa	1242.27 ± 0.88 kg/m3	–	–
283.15 K, 65000 kPa	1244.21 ± 0.92 kg/m3	–	–
285.65 K, 100 kPa	1213.3 ± 0.54 kg/m3	1538.2 ± 0.78	11.81 ± 0.13
288.15 K, 100 kPa	1211.11 ± 0.54 kg/m3 and 1211.08 ± 0.54 kg/m3	1530.8 ± 0.78	10.6 ± 0.12
288.15 K, 2000 kPa	1212.1 ± 0.54 kg/m3	–	–
288.15 K, 5000 kPa	1213.64 ± 0.55 kg/m3	–	–
288.15 K, 7000 kPa	1214.66 ± 0.56 kg/m3	–	–
288.15 K, 10000 kPa	1216.16 ± 0.57 kg/m3	–	–
288.15 K, 15000 kPa	1218.62 ± 0.59 kg/m3	–	–
288.15 K, 20000 kPa	1221.01 ± 0.62 kg/m3	–	–
288.15 K, 25000 kPa	1223.35 ± 0.64 kg/m3	–	–
288.15 K, 30000 kPa	1225.64 ± 0.67 kg/m3	–	–
288.15 K, 35000 kPa	1227.87 ± 0.7 kg/m3	–	–
288.15 K, 40000 kPa	1230.06 ± 0.73 kg/m3	–	–
288.15 K, 45000 kPa	1232.19 ± 0.76 kg/m3	–	–
288.15 K, 50000 kPa	1234.29 ± 0.8 kg/m3	–	–
288.15 K, 55000 kPa	1236.34 ± 0.84 kg/m3	–	–
288.15 K, 60000 kPa	1238.35 ± 0.87 kg/m3	–	–
288.15 K, 65000 kPa	1240.32 ± 0.91 kg/m3	–	–
290.65 K, 100 kPa	1208.87 ± 0.54 kg/m3	1523.4 ± 0.78	9.578 ± 0.11
293.15 K, 100 kPa	1206.69 ± 0.54 kg/m3 and 1206.66 ± 0.54 kg/m3	1516 ± 0.78	8.703 ± 0.099
293.15 K, 2000 kPa	1207.7 ± 0.54 kg/m3	–	–
293.15 K, 5000 kPa	1209.28 ± 0.55 kg/m3	–	–
293.15 K, 7000 kPa	1210.32 ± 0.56 kg/m3	–	–
293.15 K, 10000 kPa	1211.85 ± 0.57 kg/m3	–	–
293.15 K, 15000 kPa	1214.36 ± 0.59 kg/m3	–	–
293.15 K, 20000 kPa	1216.8 ± 0.61 kg/m3	–	–
293.15 K, 25000 kPa	1219.18 ± 0.64 kg/m3	–	–
293.15 K, 30000 kPa	1221.5 ± 0.66 kg/m3	–	–
293.15 K, 35000 kPa	1223.78 ± 0.69 kg/m3	–	–
293.15 K, 40000 kPa	1226 ± 0.72 kg/m3	–	–
293.15 K, 45000 kPa	1228.17 ± 0.76 kg/m3	–	–
293.15 K, 50000 kPa	1230.29 ± 0.79 kg/m3	–	–
293.15 K, 55000 kPa	1232.38 ± 0.83 kg/m3	–	–
293.15 K, 60000 kPa	1234.42 ± 0.87 kg/m3	–	–
293.15 K, 65000 kPa	1236.41 ± 0.9 kg/m3	–	–
295.65 K, 100 kPa	1204.45 ± 0.54 kg/m3	1508.6 ± 0.78	7.913 ± 0.09
298.15 K, 100 kPa	1202.27 ± 0.54 kg/m3 and 1202.23 ± 0.54 kg/m3	1501.2 ± 0.78	7.23 ± 0.082
298.15 K, 2000 kPa	1203.3 ± 0.54 kg/m3	–	–
298.15 K, 5000 kPa	1204.91 ± 0.55 kg/m3	–	–
298.15 K, 7000 kPa	1205.97 ± 0.56 kg/m3	–	–
298.15 K, 10000 kPa	1207.53 ± 0.57 kg/m3	–	–
298.15 K, 15000 kPa	1210.08 ± 0.59 kg/m3	–	–
298.15 K, 20000 kPa	1212.57 ± 0.61 kg/m3	–	–
298.15 K, 25000 kPa	1215 ± 0.63 kg/m3	–	–
298.15 K, 30000 kPa	1217.36 ± 0.66 kg/m3	–	–
298.15 K, 35000 kPa	1219.67 ± 0.69 kg/m3	–	–
298.15 K, 40000 kPa	1221.93 ± 0.72 kg/m3	–	–
298.15 K, 45000 kPa	1224.14 ± 0.75 kg/m3	–	–
298.15 K, 50000 kPa	1226.3 ± 0.79 kg/m3	–	–
298.15 K, 55000 kPa	1228.41 ± 0.82 kg/m3	–	–
298.15 K, 60000 kPa	1230.48 ± 0.86 kg/m3	–	–
298.15 K, 65000 kPa	1232.51 ± 0.9 kg/m3	–	–
300.65 K, 100 kPa	1200.01 ± 0.54 kg/m3	1493.9 ± 0.78	6.607 ± 0.076
303.15 K, 100 kPa	1197.82 ± 0.54 kg/m3 and 1197.79 ± 0.54 kg/m3	1486.6 ± 0.78	6.079 ± 0.07
303.15 K, 2000 kPa	1198.88 ± 0.54 kg/m3	–	–
303.15 K, 5000 kPa	1200.52 ± 0.55 kg/m3	–	–
303.15 K, 7000 kPa	1201.6 ± 0.56 kg/m3	–	–
303.15 K, 10000 kPa	1203.2 ± 0.57 kg/m3	–	–
303.15 K, 15000 kPa	1205.8 ± 0.59 kg/m3	–	–
303.15 K, 20000 kPa	1208.33 ± 0.61 kg/m3	–	–
303.15 K, 25000 kPa	1210.8 ± 0.63 kg/m3	–	–
303.15 K, 30000 kPa	1213.21 ± 0.66 kg/m3	–	–
303.15 K, 35000 kPa	1215.57 ± 0.68 kg/m3	–	–
303.15 K, 40000 kPa	1217.86 ± 0.71 kg/m3	–	–
303.15 K, 45000 kPa	1220.11 ± 0.75 kg/m3	–	–
303.15 K, 50000 kPa	1222.3 ± 0.78 kg/m3	–	–
303.15 K, 55000 kPa	1224.45 ± 0.81 kg/m3	–	–
303.15 K, 60000 kPa	1226.55 ± 0.85 kg/m3	–	–
303.15 K, 65000 kPa	1228.61 ± 0.89 kg/m3	–	–
305.65 K, 100 kPa	1195.57 ± 0.54 kg/m3	1479.3 ± 0.78	5.609 ± 0.065
308.15 K, 100 kPa	1193.36 ± 0.53 kg/m3 and 1193.34 ± 0.53 kg/m3	1472 ± 0.78	5.18 ± 0.06
308.15 K, 2000 kPa	1194.44 ± 0.54 kg/m3	–	–
308.15 K, 5000 kPa	1196.12 ± 0.55 kg/m3	–	–
308.15 K, 7000 kPa	1197.22 ± 0.55 kg/m3	–	–
308.15 K, 10000 kPa	1198.85 ± 0.56 kg/m3	–	–
308.15 K, 15000 kPa	1201.5 ± 0.58 kg/m3	–	–
308.15 K, 20000 kPa	1204.09 ± 0.6 kg/m3	–	–
308.15 K, 25000 kPa	1206.61 ± 0.63 kg/m3	–	–
308.15 K, 30000 kPa	1209.06 ± 0.65 kg/m3	–	–
308.15 K, 35000 kPa	1211.45 ± 0.68 kg/m3	–	–
308.15 K, 40000 kPa	1213.79 ± 0.71 kg/m3	–	–
308.15 K, 45000 kPa	1216.07 ± 0.74 kg/m3	–	–
308.15 K, 50000 kPa	1218.3 ± 0.77 kg/m3	–	–
308.15 K, 55000 kPa	1220.48 ± 0.81 kg/m3	–	–
308.15 K, 60000 kPa	1222.62 ± 0.84 kg/m3	–	–
308.15 K, 65000 kPa	1224.71 ± 0.88 kg/m3	–	–
310.65 K, 100 kPa	1191.11 ± 0.53 kg/m3	1464.8 ± 0.78	4.795 ± 0.056
313.15 K, 100 kPa	1188.89 ± 0.53 kg/m3 and 1188.87 ± 0.53 kg/m3	1457.6 ± 0.78	4.455 ± 0.052
313.15 K, 2000 kPa	1189.99 ± 0.54 kg/m3	–	–
313.15 K, 5000 kPa	1191.7 ± 0.55 kg/m3	–	–
313.15 K, 7000 kPa	1192.83 ± 0.55 kg/m3	–	–
313.15 K, 10000 kPa	1194.49 ± 0.56 kg/m3	–	–
313.15 K, 15000 kPa	1197.2 ± 0.58 kg/m3	–	–
313.15 K, 20000 kPa	1199.83 ± 0.6 kg/m3	–	–
313.15 K, 25000 kPa	1202.4 ± 0.62 kg/m3	–	–
313.15 K, 30000 kPa	1204.9 ± 0.65 kg/m3	–	–
313.15 K, 35000 kPa	1207.33 ± 0.67 kg/m3	–	–
313.15 K, 40000 kPa	1209.71 ± 0.7 kg/m3	–	–
313.15 K, 45000 kPa	1212.03 ± 0.73 kg/m3	–	–
313.15 K, 50000 kPa	1214.3 ± 0.76 kg/m3	–	–
